# Legend:
# [1] = tested on: TAA-induced liver fibrotic C57BL/6J mice; test: Serum biochemical analysis (liver function and nutrient metabolism); assay type: in vivo; details: CX groups (20 and 50 mg/kg oral, 6 weeks); vs TAA group
# Method: For tests of adlay extracts, mice were randomly divided into the following seven groups (n=6, per group): (1) No treatment group (NT, normal diet), (2) Thioacetamide group (TAA, 200 mg/kg, normal diet), (3) 10% adlay seed powder (ASP) group, (4) 1% adlay leaf powder (ALP) group, (5) 1% adlay seed polysaccharide (ASPS) group, (6) 0.025% adlay seed ethanolic extract (ASE) group and (7) 0.1% ASE group. NT group received pure saline, and other groups intraperitoneally injected with TAA dissolved into saline thrice a week.
# For tests of CX, mice were randomly divided into the following four groups (n=8, per group): (1) NT group, (2) TAA group (200 mg/kg), (3) CX group (CX20, 20 mg/kg), and (4) CX group (CX50, 50 mg/kg). NT group received pure saline, and other groups intraperitoneally injected with TAA dissolved into saline thrice a week. Moreover, NT group and TAA group also received 5% propylene glycol, while CX groups received CX dissolved into 5% propylene glycol (prepared in 0.9% saline) by oral gavage once per day.
# At the end of the experiment, the mice were sacrificed. Serum was obtained from the whole blood of mice after centrifuging and stored at −80° C., and the liver tissues were collected and used for the tissue histological staining.
# The procedure of biochemical analysis is as follows. The levels of serum alanine aminotransferase (ALT), aspartate aminotransferase (AST), total bilirubin (TBIL), alkaline phosphatase (ALP), total cholesterol (TC), total glyceride (TG), and glucose were measured with the chemistry analyzer. Briefly, after centrifuging the whole blood from mice, collected the serum, dropped the serum at the tested chips for analysis with an Automated Clinical Chemistry Analyzer (Fuji, Japan).
# HSC-T6 cells = test: MTT cell viability assay; assay type: cell-based, rat; details: 0-800 μM, 24 h
# Method: (§1) The procedure of cell cultures is as follows. HSC-T6 cell is an immortalized cell line isolated from transformed SV40 large T-antigen transformed primary stellate cells of male Sprague-Dawley rats. HSC-T6 cells were maintained in Dulbecco's Modified Eagle Medium (DMEM, Sigma-Aldrich, USA) containing 8% fetal bovine serum (FBS, HyClone, USA), 100 U/mL of penicillin, and 100 μg/mL of streptomycin (Gibco, USA).
# The procedure of cell viability assay is as follows. HSC-T6 cells were seed at 1.5×10^4 in 96-well plates and were incubated with CX (0-800 μM) or adlay extracts (0-800 μg/mL) for 24 h. Followed by the determination of cell viability with MTT [3-(4,5-Dimethyl-2-thiazolyl)-2,5-diphenyl-2H-tetrazolium bromide] (Sigma-Aldrich, USA). Briefly, MTT was added to each well at a final concentration of […] and was incubated at 37° C. for 1 h. Next, removed the MTT and added the DMSO to dissolve MTT-formazan crystals formed by metabolically viable cells. Finally, the absorbance of each well was detected by a spectrophotometer at the wavelength of 570 nm.
# [2] = tested on: TGF-β1-activated HSC-T6 cells; test: Western blot of fibrotic and EMT-related proteins; assay type: cell-based, rat; details: HSC-T6, TGF-β1 10 ng/mL, 24 h
# Method: as §1
# (§2) For hepatic stellate cell (HSC) activation, cells were cultured for 24 h and then replaced with serum-free medium for 24 h, after that, treated with transforming growth factor beta 1 (TGF-β1) (10 ng/mL) in the presence or absence of CX (10-100 μM) or adlay leaf, root, and seed extracts (25 and 50 μg/mL) for 24 h, or 30 min for intracellular signal pathways.
# The procedure of Western blot analysis is as follows. Cells were lysed in RIPA buffer with protease inhibitor and then centrifuged at 4° C., 12000 rpm for 10 min. Collected the supernatant and quantified the total protein concentration to 50 μg. After heating at 95° C. for 10 min, the protein samples were separated by SDS-PAGE gel, transferred to PVDF membrane, followed by blocking with 6% milk, incubated with primary antibodies at 4° C., overnight and secondary antibodies at room temperature for 1 h. Blot images were visualized on Amersham Imager 680 (Cytiva, USA) with ECL agent (GeneDireX, USA).
# [3] = tested on: TGF-β1-activated HSC-T6 cells; test: Real-time PCR of inflammatory factors; assay type: cell-based, rat; details: HSC-T6, TGF-β1 10 ng/mL, 24 h
# Excerpt: The procedure of real-time PCR analysis is as follows. Total RNA was extracted with the Trizol reagent (Ambion, USA) and then reverse-transcribed into cDNA with RevertAid First Strand cDNA Synthesis kit (Thermo Scientific, USA). The PCR amplification was accomplished with SYBR Green PCR Master Mix (Applied Biosystems, USA), and the mRNA expression of the gene was normalized to GAPDH. All primers were obtained from Genomics (Genomics, Taiwan). Rat primer sequences are used for real-time PCR of HSC-T6 cells, and mouse primer sequences are used for real-time PCR of C57BL/6J mice.
# as §1, §2
# [4] = tested on: TGF-β1-activated HSC-T6 cells; test: ROS detection assay (DCFDA); assay type: cell-based, rat; details: HSC-T6, TGF-β1, CX 10-100 μM, with increasing doses
# Method: as §1, §2
# The procedure of ROS detection assay is as follows. 2′,7′-Dichlorofluorescein diacetate (DCFDA), a cell-permeable fluorogenic probe, is usually used to detect ROS and nitric oxide in live cells. DCFDA rapidly de-esterifies to form fluorescent 2′,7′-dichlorofluorescein (DCF) when it is oxidized by ROS in cells. For ROS detection, cells were seeded in the 96-well plate for 24 h, then starvation (culture in serum-free medium) and drug treatment, followed by changing the medium with DCFDA solution for 30 min, and detecting the excitation/emission spectra of 485/525 nm by multimode microplate readers (TECAN, Switzerland).
structure (smiles),measurement,setting,value
"COc1ccc2[nH]c(=O)oc2c1 [CX, 6-methoxybenzoxazolinone]",changes in serum TC level caused by TAA,[1],significantly reduced
same,changes in serum TG level caused by TAA,[1],significantly reduced
same,changes in serum glucose level caused by TAA,[1],significantly reduced
same,serum ALP,[1],decreased significantly
same,serum ALT,[1],decreased significantly
same,serum AST,[1],decreased significantly
same,serum TBIL,[1],decreased significantly
same,dose with no significant effects on cell viability,HSC-T6 cells,below 400 μM
same,TGF-β1-induced COL1A1 expression (Western blot),[2]; CX 10-100 μM,reduced
same,TGF-β1-induced fibronectin expression (Western blot),[2]; CX 10-100 μM,reduced
same,TGF-β1-induced α-SMA expression (Western blot),[2]; CX 10-100 μM,reduced
same,E-cadherin expression (Western blot),[2]; CX even at the lowest dose (10 μM),significantly enhanced
same,TGF-β1-induced IL-6 mRNA level,"[3]; CX 10, 20, 50, 100 μM",dose-dependently decreased
same,TGF-β1-induced TNF-α mRNA level,"[3]; CX 10, 20, 50, 100 μM",dose-dependently decreased
same,IL-10 mRNA level,[3]; CX at the highest dose (100 μM),significantly increased
same,TGF-β1-induced ROS levels (DCFDA),[4],reduced
